Data reported in patent US20230146455A1, “TREATMENT OF INFLAMMATORY DISEASES WITH PEPTIDES AND PHARMACEUTICAL COMPOSITIONS” (Yuyu Pharma, Inc., priority 2020, published 2023).
Where “and” joins values, the source holds several entries; their conditions need not be identical. Equal entries are not always repeated. Where a SMILES comes first, the peptide text is derived from it. [ ]: non-standard residue; d: D form. Hyp = O=C(O)[C@@H]1C[C@@H](O)CN1

How the values were obtained:
CCL2/JE/MCP-1 = experiment: Example 9 Luminex, LPS hPBMCs: CCL2/JE/MCP-1; assay type: cell-based, human
Method: (§1) Treatment Human PBMCs were pretreated with YY-101, YDE-011 and YDE-043 or reference compound; Xiidra® at various concentration (ranging from 1 nM to 100 uM) for 2 h before stimulation. An equal volume of 0.5% DMSO was used as a vehicle control. Then, the cells were treated with LPS at 5 ug/ml. The supernatants from treated cells were harvested at 24 h and placed in a 96 well for Luminex cytokine & chemokine profiling using a Luminex 200 multiplex assay (Luminex; R&D system, USA).
(§2) The main study arm with triplicate wells per group in a 24-well plate: • 1. Blank • 2. PBMC: 0.5% DMSO • 3. PBMC+LPS (5 ug/ml) • 4. PBMC+YY-101 100 uM • 5. PBMC+YY-101 10 uM • 6. PBMC+YY-101 1 uM • 7. PBMC+YY-101 0.1 uM • 8. PBMC+YY-101 0.01 uM • 9. PBMC+LPS (5 ug/ml)+Xiidra®100 uM • 10. PBMC+LPS (5 ug/ml)+Xiidra® 10 uM • 11. PBMC+LPS (5 ug/ml)+Xiidra® 1 uM • 12. PBMC+LPS (5 ug/ml)+Xiidra®0.1 uM • 13. PBMC+LPS (5 ug/ml)+Xiidra®0.01 uM • 14. PBMC+LPS (5 ug/ml)+Xiidra®0.001 uM • 15. PBMC+LPS (5 ug/ml)+YY-101 100 uM • 16. PBMC+LPS (5 ug/ml)+YY-101 10 uM • 17. PBMC+LPS (5 ug/ml)+YY-101 1 uM • 18. PBMC+LPS (5 ug/ml)+YY-101 0.1 uM • 19. PBMC+LPS (5 ug/ml)+YY-101 0.01 uM • 20. PBMC+LPS (5 ug/ml)+YY-101 0.001 uM • 21. PBMC+LPS (5 ug/ml)+YDE-011 100 uM • 22. PBMC+LPS (5 ug/ml)+YDE-011 10 uM • 23. PBMC+LPS (5 ug/ml)+YDE-011 1 uM • 24. PBMC+LPS (5 ug/ml)+YDE-011 0.1 uM • 25. PBMC+LPS (5 ug/ml)+YDE-011 0.01 uM • 26. PBMC+LPS (5 ug/ml)+YDE-011 0.001 uM • 27. PBMC+LPS (5 ug/ml)+YDE-043 100 uM • 28. PBMC+LPS (5 ug/ml)+YDE-043 10 uM • 29. PBMC+LPS (5 ug/ml)+YDE-043 1 uM • 30. PBMC+LPS (5 ug/ml)+YDE-043 0.1 uM • 31. PBMC+LPS (5 ug/ml)+YDE-043 0.01 uM • 32. PBMC+LPS (5 ug/ml)+YDE-043 0.001 uM
(§3) Multiplex assay was used to measure 30 cytokines and chemokines. The 1:2, 1:10 and 1:200 diluted cell supernatant and serial dilution of the standard were dispensed into a 96 well plate at 50 ul/well. Then, the pre-mixed cocktail of antibody-coated magnetic beads was dispensed at 50 ul/well and incubated at room temperature for 2 h in a horizontal orbital microplate shaker at 800±500 rpm. The beads were washed using a magnetic device to prevent loss. The biotin-antibody was dispensed in 50 ul of each well and incubated at room temperature for 1 h in a shaker at 800±500 rpm. After washing, streptavidin-PE was added at 50 ul/well and incubated at room temperature for 30 min in a shaker under the same conditions. Finally, after washing, wash buffer (100 ul/well) was added to the plate and incubated in a shaker for 2 min. The Luminex™ 200 setting were set according to the manufacturer's protocol. The data was calculated with a standard five-parameter logistic nonlinear regression analysis of the data (xPonent software 4.2, USA). The levels of cytokine/chemokine are normalized to the live cell counts (1×10^5 cells/mL) and presented as concentrations per mL (pg/mL or ng/mL).

CCL4/MIP-1 beta = experiment: Example 9 Luminex, LPS hPBMCs: CCL4/MIP-1 beta; assay type: cell-based, human; settings: PBMC + LPS(5 ug/ml); for MFI (Bead name: CCL4/MIP-1 beta): dilution 10
Method: as §1, §2, §3

[1] = PBMC + LPS(5 ug/ml) + test article 0.001 uM, Mean
[2] = PBMC + LPS(5 ug/ml) + test article 0.001 uM, individual replicates
[3] = PBMC + LPS(5 ug/ml) + test article 0.01 uM, Mean
[4] = PBMC + LPS(5 ug/ml) + test article 0.01 uM, individual replicates
[5] = PBMC + LPS(5 ug/ml) + test article 0.1 uM, Mean
[6] = PBMC + LPS(5 ug/ml) + test article 0.1 uM, individual replicates
[7] = PBMC + LPS(5 ug/ml) + test article 1 uM, Mean
[8] = PBMC + LPS(5 ug/ml) + test article 1 uM, individual replicates
[9] = PBMC + LPS(5 ug/ml) + test article 10 uM, Mean
[10] = PBMC + LPS(5 ug/ml) + test article 10 uM, individual replicates
[11] = PBMC + LPS(5 ug/ml) + test article 100 uM, Mean
[12] = PBMC + LPS(5 ug/ml) + test article 100 uM, individual replicates
[13] = test article 0.001 uM, single replicates
[14] = test article 0.01 uM, single replicates
[15] = test article 0.1 uM, single replicates
[16] = test article 1 uM, single replicates
[17] = test article 10 uM, single replicates
[18] = test article 100 uM, single replicates

CC(C)C[C@H](NC(=O)[C@H](CCC(N)=O)NC(=O)CNC(=O)[C@@H]1C[C@@H](O)CN1)C(=O)NCC(=O)O [YDE-043] (H-[Hyp]GQLG-OH; N-terminus and C-terminus assumed)
Concentration (CCL2/JE/MCP-1; [1]): 2109.3 pg/mL
conc/live cell (CCL2/JE/MCP-1; [1]): 427.9 pg/10^5
Concentration (CCL2/JE/MCP-1; [2]): 2082.8 pg/mL and 2215.5 pg/mL and 2029.7 pg/mL
conc/live cell (CCL2/JE/MCP-1; [2]): 473.4 pg/10^5 and 369.2 pg/10^5 and 441.2 pg/10^5
Concentration (CCL2/JE/MCP-1; [3]): 2023.7 pg/mL
conc/live cell (CCL2/JE/MCP-1; [3]): 388.1 pg/10^5
Concentration (CCL2/JE/MCP-1; [4]): 2036.2 pg/mL and 1963.4 pg/mL and 2071.4 pg/mL
conc/live cell (CCL2/JE/MCP-1; [4]): 452.5 pg/10^5 and 297.5 pg/10^5 and 414.3 pg/10^5
Concentration (CCL2/JE/MCP-1; [5]): 1922.5 pg/mL
conc/live cell (CCL2/JE/MCP-1; [5]): 358.4 pg/10^5
Concentration (CCL2/JE/MCP-1; [6]): 2109.9 pg/mL and 1768.2 pg/mL and 1889.5 pg/mL
conc/live cell (CCL2/JE/MCP-1; [6]): 422.0 pg/10^5 and 315.8 pg/10^5 and 337.4 pg/10^5
Concentration (CCL2/JE/MCP-1; [7]): 2123.4 pg/mL
conc/live cell (CCL2/JE/MCP-1; [7]): 402.7 pg/10^5
Concentration (CCL2/JE/MCP-1; [8]): 2174.1 pg/mL and 2114.7 pg/mL and 2081.5 pg/mL
conc/live cell (CCL2/JE/MCP-1; [8]): 374.9 pg/10^5 and 440.6 pg/10^5 and 392.7 pg/10^5
Concentration (CCL2/JE/MCP-1; [9]): 1799.9 pg/mL
conc/live cell (CCL2/JE/MCP-1; [9]): 333.9 pg/10^5
Concentration (CCL2/JE/MCP-1; [10]): 1889.0 pg/mL and 1766.4 pg/mL and 1744.2 pg/mL
conc/live cell (CCL2/JE/MCP-1; [10]): 363.3 pg/10^5 and 327.1 pg/10^5 and 311.5 pg/10^5
Concentration (CCL2/JE/MCP-1; [11]): 281.0 pg/mL
conc/live cell (CCL2/JE/MCP-1; [11]): 44.6 pg/10^5
Concentration (CCL2/JE/MCP-1; [12]): 258.9 pg/mL and 303.0 pg/mL
conc/live cell (CCL2/JE/MCP-1; [12]): 41.8 pg/10^5 and 47.3 pg/10^5
Concentration (CCL4/MIP-1 beta) (CCL4/MIP-1 beta; test article 0.001 uM, Mean): 7716.4 pg/mL
conc/live cell (CCL4/MIP-1 beta) (CCL4/MIP-1 beta; test article 0.001 uM, Mean): 1568.7 pg/10^5
MFI (Bead name: CCL4/MIP-1 beta) (CCL4/MIP-1 beta; test article 0.001 uM, Mean): 177.7
MFI (Bead name: CCL4/MIP-1 beta) (CCL4/MIP-1 beta; [13]): 165.5 and 185.0 and 182.5
Concentration (CCL4/MIP-1 beta) (CCL4/MIP-1 beta; [13]): 7441.6 pg/mL and 7881.5 pg/mL and 7826.1 pg/mL
conc/live cell (CCL4/MIP-1 beta) (CCL4/MIP-1 beta; [13]): 1691.3 pg/10^5 and 1313.6 pg/10^5 and 1701.3 pg/10^5
Concentration (CCL4/MIP-1 beta) (CCL4/MIP-1 beta; test article 0.01 uM, Mean): 7755.3 pg/mL
conc/live cell (CCL4/MIP-1 beta) (CCL4/MIP-1 beta; test article 0.01 uM, Mean): 1483.8 pg/10^5
MFI (Bead name: CCL4/MIP-1 beta) (CCL4/MIP-1 beta; test article 0.01 uM, Mean): 179.3
MFI (Bead name: CCL4/MIP-1 beta) (CCL4/MIP-1 beta; [14]): 178.0 and 177.0 and 183.0
Concentration (CCL4/MIP-1 beta) (CCL4/MIP-1 beta; [14]): 7725.6 pg/mL and 7703.2 pg/mL and 7837.2 pg/mL
conc/live cell (CCL4/MIP-1 beta) (CCL4/MIP-1 beta; [14]): 1716.8 pg/10^5 and 1167.1 pg/10^5 and 1567.4 pg/10^5
Concentration (CCL4/MIP-1 beta) (CCL4/MIP-1 beta; test article 0.1 uM, Mean): 7358.9 pg/mL
conc/live cell (CCL4/MIP-1 beta) (CCL4/MIP-1 beta; test article 0.1 uM, Mean): 1365.2 pg/10^5
MFI (Bead name: CCL4/MIP-1 beta) (CCL4/MIP-1 beta; test article 0.1 uM, Mean): 162.0
MFI (Bead name: CCL4/MIP-1 beta) (CCL4/MIP-1 beta; [15]): 153.5 and 159.5 and 173.0
Concentration (CCL4/MIP-1 beta) (CCL4/MIP-1 beta; [15]): 7161.3 pg/mL and 7302.4 pg/mL and 7612.9 pg/mL
conc/live cell (CCL4/MIP-1 beta) (CCL4/MIP-1 beta; [15]): 1432.3 pg/10^5 and 1304.0 pg/10^5 and 1359.5 pg/10^5
Concentration (CCL4/MIP-1 beta) (CCL4/MIP-1 beta; test article 1 uM, Mean): 7359.3 pg/mL
conc/live cell (CCL4/MIP-1 beta) (CCL4/MIP-1 beta; test article 1 uM, Mean): 1391.3 pg/10^5
MFI (Bead name: CCL4/MIP-1 beta) (CCL4/MIP-1 beta; test article 1 uM, Mean): 162.3
MFI (Bead name: CCL4/MIP-1 beta) (CCL4/MIP-1 beta; [16]): 175.0 (2×) and 137.0
Concentration (CCL4/MIP-1 beta) (CCL4/MIP-1 beta; [16]): 7658.2 pg/ml (2×) and 6761.7 pg/ml
conc/live cell (CCL4/MIP-1 beta) (CCL4/MIP-1 beta; [16]): 1320.4 pg/10^5 and 1408.7 pg/10^5 and 1444.9 pg/10^5
Concentration (CCL4/MIP-1 beta) (CCL4/MIP-1 beta; test article 10 uM, Mean): 7298.5 pg/mL
conc/live cell (CCL4/MIP-1 beta) (CCL4/MIP-1 beta; test article 10 uM, Mean): 1352.7 pg/10^5
MFI (Bead name: CCL4/MIP-1 beta) (CCL4/MIP-1 beta; test article 10 uM, Mean): 159.3
MFI (Bead name: CCL4/MIP-1 beta) (CCL4/MIP-1 beta; [17]): 159.0 and 158.0 and 161.0
Concentration (CCL4/MIP-1 beta) (CCL4/MIP-1 beta; [17]): 7290.8 pg/mL and 7267.3 pg/mL and 7337.4 pg/mL
conc/live cell (CCL4/MIP-1 beta) (CCL4/MIP-1 beta; [17]): 1402.1 pg/10^5 and 1345.8 pg/10^5 and 1310.3 pg/10^5
Concentration (CCL4/MIP-1 beta) (CCL4/MIP-1 beta; test article 100 uM, Mean): 6094.9 pg/mL
conc/live cell (CCL4/MIP-1 beta) (CCL4/MIP-1 beta; test article 100 uM, Mean): 968.2 pg/10^5
MFI (Bead name: CCL4/MIP-1 beta) (CCL4/MIP-1 beta; test article 100 uM, Mean): 111.3
MFI (Bead name: CCL4/MIP-1 beta) (CCL4/MIP-1 beta; [18]): 118.5 and 104.0
Concentration (CCL4/MIP-1 beta) (CCL4/MIP-1 beta; [18]): 6290.4 pg/mL and 5899.5 pg/mL
conc/live cell (CCL4/MIP-1 beta) (CCL4/MIP-1 beta; [18]): 1014.6 pg/10^5 and 921.8 pg/10^5
